US11584711B2, “2,2,2-trifluoroacetic acid 1-(2,4-dimethylphenyl)-2-[(3-methoxyphenyl)methylene] method of making the same” (Abrexa Pharmaceuticals, Inc., priority 2018, dated 2023)
Converted amounts (≈) assume the structure as drawn. “Also recorded” adds a separate entry of the source. Where two headings read alike, the source gives them in different places.

Columns and labels:
[1] = Hygroscopicity-Dynamic Vapor Sorption (DVS); assay type: physicochemical; conditions: 25° C.; for tendency to hydrate formation (DVS): 0 to 95% RH; for total weight loss (DVS): at 95% RH
Protocol: Hygroscopicity-Dynamic Vapor Sorption (DVS): DVS is a gravimetric screening technique that measures how quickly and how much of a solvent (water) is adsorbed by a sample. The relative humidity or vapor concentration surrounding the sample is varied while the change in mass of the sample is measured. […] The mass values at each relative humidity step are used to generate the isotherm. Isotherms are divided in two components: sorption for increasing humidity steps and desorption for decreasing humidity steps.
The samples were analyzed using a TA Q2000 automated dynamic vapor sorption analyzer. The samples were dried at 40° C. for 5 hours and then cooled to 25° C. with a dry nitrogen purge over them until they no longer lost mass at 0% RH. The samples were then subjected to 0 to 95% RH, back to 0% RH at 25° C. in 5% RH steps.

[2] = Polymorph screen summary of solid state forms; assay type: physicochemical; conditions: room temperature and pressure
Description: The raw diffraction data generated from the polymorph screening experiments were categorized into two polymorphic forms. Samples of these different forms were used to perform additional experiments (DSC, TGA, HSM, etc.) to refine the forms.
The main result is the discovery of two anhydrous polymorphic forms of J147. The polymorphic forms isolated in this Example were designated I and II. At room temperature and pressure Form II is the thermodynamically form of J147. Form I is the metastable form at room temperature and pressure.

[3] = Static Vapor Sorption Study; assay type: physicochemical; conditions: 75% RH static humidity chamber, ambient temperature, after 5 and 12 days
Description: Static Vapor Sorption Study: A […] vapor sorption study was done in a sealed humidity chamber with an automatic moisture sorption balance. Data collected during dynamic vapor sorption studies often are not at thermodynamic equilibrium. To determine if the Form I and Form II material form a hydrate over time, samples were monitored in a 75% static humidity chamber.
In these studies, samples were stored in open Petri dishes in a chamber containing a saturated salt solution to maintain the relative vapor pressure. A solution of saturated sodium chloride (75% RH) salt at ambient temperature was used.
The samples were examined gravimetrically after 5 and 12 days.

[4] = Competitive Slurry Experiments; assay type: physicochemical; conditions: ambient temperature and pressure
Protocol: These experiments rely on the solubility differences of different polymorphic forms.
The slurry experiments were performed by exposing excess material of Forms I and II to a small volume of solvent/water and agitating the resulting suspensions for several days at ambient temperature. The solids were filtered and analyzed by XRD and DSC to determine the resulting form. To avoid possible desolvation or physical change after isolation, the sample was not dried before x-ray analysis.

[5] = Heat storage / variable temperature XRD form conversion; assay type: physicochemical; conditions: for form conversion by XRD: 40° C. oven over weekend
Protocol: Recrystallization Using Heat: Amorphous/glass samples from Panel 1 were placed in a vacuum oven at 60° C. for 6 days. […] A sample of Form I was placed in a 40° C. in oven over a weekend.

Grinding = assay type: physicochemical; conditions: ball mill 1 minute at 4800 oscillations per minute
Protocol: Grinding: Form I was ground using a Crescent Wig-L-Bug ball mill for 1 minute at 4800 oscillations per minute (3.2 m/s).

[6] = test system: transgenic AD mouse model; conditions: cited from earlier work
[7] = Visual Solubility Measurement; assay type: physicochemical; conditions: thermodynamic from solid, ambient temperature, read-out: Approximate Solubility
Protocol: Visual Solubility Measurement: Approximately 80 mg of J147 was placed into each of 25 vials. Solvent was added and vials were stirred for several minutes at ambient temperature, followed by visual observation for remaining solids. The solvent was incrementally added until the solids were dissolved, or until a maximum volume of solvent was added and the experiment was terminated. These stock solutions were used to set up further panels of experiments.

[8] = test system: neurotoxicity pathways related to aging and neurodegenerative diseases; conditions: assays indicating distinct neurotoxicity pathways; cited from earlier work
normal rodents = conditions: cited from earlier work

Q: With `COc1cccc(C=NN(C(=O)C(F)(F)F)c2ccc(C)cc2C)c1` [Form II, 2,2,2-trifluoroacetic acid 1-(2,4-Dimethylphenyl)-2-[(3-methoxyphenyl)methylene]hydrazide] as the molecule, how does the “tendency to hydrate formation (DVS)” value [1] read?
A: Its value is “does not appear to be prone to hydrate formation”.

Q: What about the “total weight loss (DVS)” value [1] of the same molecule?
A: Its value is “approximately 0.5%”.

Q: And the “Description (thermodynamic stability of form)” value [2]?
A: Its value is “Thermodynamically”.

Q: And the “hydrate formation (gravimetric weight change)” value [3]?
A: The value was “no hydrate formation”.

Q: What about the “solubility and thermodynamic stability relative to Form I” value [4] of the same molecule?
A: Its value is “less soluble, more thermodynamically stable”.

Q: What about the “form conversion by XRD” value [5] of the same molecule?
A: The value was “no form conversion”.

Q: For `COc1cccc(/C=N/N(C(=O)C(F)(F)F)c2ccc(C)cc2C)c1` [Amorphous/glass samples from Panel 1], which “form by XRD after heating” value ([5]; vacuum oven at 60° C. for 6 days) is on record?
A: Its value is “XRD pattern of Form II”.

Q: With `COc1cccc(C=NN(C(=O)C(F)(F)F)c2ccc(C)cc2C)c1` [Form I, 2,2,2-trifluoroacetic acid 1-(2,4-Dimethylphenyl)-2-[(3-methoxyphenyl)methylene]hydrazide] as the molecule, how does the “tendency to hydrate formation (DVS)” value [1] read?
A: The value was “does not appear to be prone to hydrate formation; also recorded: did not appear to be prone to hydrate formation”.

Q: What about the “total weight loss (DVS)” value [1] of the same molecule?
A: The value was “approximately 0.5%”.

Q: What about the “Description (thermodynamic stability of form)” value [2] of the same molecule?
A: The value was “Metastable”.

Q: And the “hydrate formation (gravimetric weight change)” value [3]?
A: The value was “no hydrate formation”.

Q: And the “form transformation by XRD after grinding” value (Grinding)?
A: The value was “no transformation”.

Q: And the “form conversion by XRD” value [5]?
A: The value was “conversion to Form II”.

Q: And the “form conversion by variable temperature XRD” value ([5]; held at 35° C. over a weekend)?
A: Its value is “no form conversion”.

Q: Which results are given for `COc1cccc(/C=N/N(C(=O)C(F)(F)F)c2ccc(C)cc2C)c1` [Form J147, 2,2,2-trifluoroacetic acid 1-(2,4-Dimethylphenyl)-2-[(3-methoxyphenyl)methylene] hydrazide]?
A: effect on synaptic proteins and cognitive decline [6]: prevent the loss of synaptic proteins and cognitive decline; solubility ([7]; organic solvent or mixture, 1-butanol): 40 mg/mL (≈ 114 mM); solubility ([7]; organic solvent or mixture, 1-propanol): > 80 mg/mL; solubility ([7]; organic solvent or mixture, 2-butanol): 40 mg/mL (≈ 114 mM); solubility ([7]; organic solvent or mixture, 2-propanol): 40 mg/mL (≈ 114 mM); solubility ([7]; organic solvent or mixture, acetone): > 80 mg/mL; solubility ([7]; organic solvent or mixture, acetonitrile (ACN)): > 80 mg/mL; solubility ([7]; organic solvent or mixture, butyl amine): > 80 mg/mL; solubility ([7]; organic solvent or mixture, chloroform): > 80 mg/mL; solubility ([7]; organic solvent or mixture, dichloromethane (DCM)): > 80 mg/mL; solubility ([7]; organic solvent or mixture, dimethyl formamide (DMF)): > 80 mg/mL; solubility ([7]; organic solvent or mixture, dimethylacetamide (DMA)): > 80 mg/mL; solubility ([7]; organic solvent or mixture, ethanol): > 80 mg/mL; solubility ([7]; organic solvent or mixture, ethyl acetate): > 80 mg/mL; solubility ([7]; organic solvent or mixture, heptane): 8 mg/mL (≈ 22.8 mM); solubility ([7]; organic solvent or mixture, isopropyl acetate): > 80 mg/mL; solubility ([7]; organic solvent or mixture, isopropyl ether): > 80 mg/mL; solubility ([7]; organic solvent or mixture, methanol): > 80 mg/mL; solubility ([7]; organic solvent or mixture, methyl ethyl ketone (MEK)): > 80 mg/mL; solubility ([7]; organic solvent or mixture, methyl tert butyl ether (MTBE)): > 80 mg/mL; solubility ([7]; organic solvent or mixture, nitromethane): > 80 mg/mL; solubility ([7]; organic solvent or mixture, pyridine): > 80 mg/mL; solubility ([7]; organic solvent or mixture, tetrahydrofuran (THF)): > 80 mg/mL; solubility ([7]; organic solvent or mixture, toluene): > 80 mg/mL; solubility ([7]; organic solvent or mixture, trifluoroethanol): > 80 mg/mL; solubility ([7]; water): < 1.6 mg/mL; EC50 [8]: 10 to 200 nM; effect on memory (normal rodents): improve memory
